Reference: US11078228B2, “Ectonucleotidase inhibitors and methods of use thereof” (Calithera Biosciences, Inc., priority 2018, dated 2021)

Target: recombinant CD73 (Homo sapiens (Human), UniProt P21589)
Experiment: Assay 2: Inhibition of the CD73 enzyme in vitro (0.05 nM CD73, 1 hour 37° C., Malachite Green)
Format: biochemical
Conditions: 0.05 nM CD73, 50 μM AMP, 1 hour at 37° C.
In short: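 Soluble recombinant CD73 reactions ran 1 hour at 37° C. Malachite Green was then added, and absorbance at 630 nm was read after 5 min at room temperature. Inorganic phosphate was quantified from a phosphate standard curve.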

Sequence of recombinant CD73 (P21589 27-547): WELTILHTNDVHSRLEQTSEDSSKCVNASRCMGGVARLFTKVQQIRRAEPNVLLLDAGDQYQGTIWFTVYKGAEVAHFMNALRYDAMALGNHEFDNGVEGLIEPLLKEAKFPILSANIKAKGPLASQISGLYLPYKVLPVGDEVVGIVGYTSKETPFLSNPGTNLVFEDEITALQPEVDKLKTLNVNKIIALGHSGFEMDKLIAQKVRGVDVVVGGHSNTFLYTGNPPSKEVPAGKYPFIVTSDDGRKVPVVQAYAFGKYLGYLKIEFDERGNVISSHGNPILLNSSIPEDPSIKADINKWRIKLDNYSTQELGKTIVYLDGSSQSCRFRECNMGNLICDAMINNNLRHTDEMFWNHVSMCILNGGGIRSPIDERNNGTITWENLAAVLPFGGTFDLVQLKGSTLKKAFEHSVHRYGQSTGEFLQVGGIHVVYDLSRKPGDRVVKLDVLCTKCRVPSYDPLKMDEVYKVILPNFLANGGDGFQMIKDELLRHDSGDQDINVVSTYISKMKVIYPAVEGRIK

| IC50 | SMILES |
| --- | --- |
| 0.29 nM | C#C[C@@]1(O)[C@@H](COC(Cc2ccc(N3CCCNC3=O)cc2)(C(=O)O)C(=O)O)O[C@@H](n2cnc3c(NC(C)C)nc(Cl)nc32)[C@@H]1O [Example 140, 2-(((2R,3S,4R,5R)-5-(2-chloro-6-(isopropylamino)-9H-purin-9-yl)-3-ethynyl-3,4-dihydroxytetrahydrofuran-2-yl)methoxy)-2-(4-(2-oxotetrahydropyrimidin-1(2H)-yl)benzyl)malonic acid] |
| 0.23 nM | C#C[C@@]1(O)[C@@H](COC(Cc2ccc(N3CCCNC3=O)cc2)(C(=O)O)C(=O)O)O[C@@H](n2cnc3c(NC)nc(Cl)nc32)[C@@H]1O [Example 141, 2-(((2R,3S,4R,5R)-5-(2-chloro-6-(methylamino)-9H-purin-9-yl)-3-ethynyl-3,4-dihydroxytetrahydrofuran-2-yl)methoxy)-2-(4-(2-oxotetrahydropyrimidin-1 (2H)-yl)benzyl)malonic acid] |
| 5 nM | C#C[C@@]1(O)[C@@H](COC(Cc2nccs2)(C(=O)O)C(=O)O)O[C@@H](n2cnc3c(N)nc(Cl)nc32)[C@@H]1O [Example 142, 2-(((2R,3S,4R,5R)-5-(6-amino-2-chloro-9H-purin-9-yl)-3-ethynyl-3,4-dihydroxytetrahydrofuran-2-yl)methoxy)-2-(thiazol-2-ylmethyl)malonic acid] |
| 13 nM | C#C[C@@]1(O)[C@@H](COC(Cc2cncs2)(C(=O)O)C(=O)O)O[C@@H](n2cnc3c(N)nc(Cl)nc32)[C@@H]1O [Example 143, 2-(((2R,3S,4R,5R)-5-(6-amino-2-chloro-9H-purin-9-yl)-3-ethynyl-3,4-dihydroxytetrahydrofuran-2-yl)methoxy)-2-(thiazol-5-ylmethyl)malonic acid] |
| 1 nM | C#C[C@@]1(O)[C@@H](COC(Cc2ccc(N3CCCC3)cc2)(C(=O)O)C(=O)O)O[C@@H](n2cnc3c(N)nc(Cl)nc32)[C@@H]1O [Example 144, 2-(((2R,3S,4R,5R)-5-(6-amino-2-chloro-9H-purin-9-yl)-3-ethynyl-3,4-dihydroxytetrahydrofuran-2-yl)methoxy)-2-(4-(pyrrolidin-1-yl)benzyl)malonic acid] |
| 108 nM | C#C[C@@]1(O)[C@@H](COC(Cc2ccccc2)(C(=O)O)C(=O)O)O[C@@H](n2cnc3c(N)nc(SCC)nc32)[C@@H]1O [Example 145, 2-(((2R,3S,4R,5R)-5-(6-amino-2-(ethylthio)-9H-purin-9-yl)-3-ethynyl-3,4-dihydroxytetrahydrofuran-2-yl)methoxy)-2-benzylmalonic acid] |
| 0.41 nM | C#C[C@@]1(O)[C@@H](COC(Cc2ccc(-c3cccn(CCOC)c3=O)cc2)(C(=O)O)C(=O)O)O[C@@H](n2cnc3c(N)nc(Cl)nc32)[C@@H]1O [Example 146, 2-(((2R,3S,4R,5R)-5-(6-amino-2-chloro-9H-purin-9-yl)-3-ethynyl-3,4-dihydroxytetrahydrofuran-2-yl)methoxy)-2-(4-(1-(2-methoxyethyl)-2-oxo-1,2-dihydropyridin-3-yl)benzyl)malonic acid] |
| 0.58 nM | C#C[C@@]1(O)[C@@H](COC(Cc2ccc(-c3ccc[nH]c3=O)cc2)(C(=O)O)C(=O)O)O[C@@H](n2cnc3c(NC)nc(Cl)nc32)[C@@H]1O [Example 147, 2-(((2R,3S,4R,5R)-5-(2-chloro-6-(methylamino)-9H-purin-9-yl)-3-ethynyl-3,4-dihydroxytetrahydrofuran-2-yl)methoxy)-2-(4-(2-oxo-1,2-dihydropyridin-3-yl)benzyl)malonic acid] |
| 0.08 nM | C#C[C@@]1(O)[C@@H](COC(Cc2ccc(N3CCCN(C)C3=O)cc2)(C(=O)O)C(=O)O)O[C@@H](n2cnc3c(NC)nc(Cl)nc32)[C@@H]1O [Example 148, 2-(((2R,3S,4R,5R)-5-(2-chloro-6-(methylamino)-9H-purin-9-yl)-3-ethynyl-3,4-dihydroxytetrahydrofuran-2-yl)methoxy)-2-(4-(3-methyl-2-oxotetrahydropyrimidin-1 (2H)-yl)benzyl)malonic acid] |
| 0.11 nM | C#C[C@@]1(O)[C@@H](COC(Cc2ccc(N3CCCN(C)C3=O)cc2)(C(=O)O)C(=O)O)O[C@@H](n2cnc3c(N)nc(Cl)nc32)[C@@H]1O [Example 149, 2-(((2R,3S,4R,5R)-5-(6-amino-2-chloro-9H-purin-9-yl)-3-ethynyl-3,4-dihydroxytetrahydrofuran-2-yl)methoxy)-2-(4-(3-methyl-2-oxotetrahydropyrimidin-1 (2H)-yl)benzyl)malonic acid] |
| 0.16 nM | C#C[C@@]1(O)[C@@H](COC(Cc2ccc(N3CCCN(C)C3=O)cc2)(C(=O)O)C(=O)O)O[C@@H](n2cnc3c(NCC4CC4)nc(Cl)nc32)[C@@H]1O [Example 150, 2-(((2R,3S,4R,5R)-5-(2-chloro-6-((cyclopropylmethyl)amino)-9H-purin-9-yl)-3-ethynyl-3,4-dihydroxytetrahydrofuran-2-yl)methoxy)-2-(4-(3-methyl-2-oxotetrahydropyrimidin-1 (2H)-yl)benzyl)malonic acid] |
| 0.25 nM | C#C[C@@]1(O)[C@@H](COC(Cc2ccc(N3CCCN(C)C3=O)cc2)(C(=O)O)C(=O)O)O[C@@H](n2cnc3c(NC(C)C)nc(Cl)nc32)[C@@H]1O [Example 151, 2-(((2R,3S,4R,5R)-5-(2-chloro-6-(isopropylamino)-9H-purin-9-yl)-3-ethynyl-3,4-dihydroxytetrahydrofuran-2-yl)methoxy)-2-(4-(3-methyl-2-oxotetrahydropyrimidin-1(2H)-yl)benzyl)malonic acid] |
| 0.05 nM | C#C[C@@]1(O)[C@@H](COC(Cc2ccc(N3CCCN(CCC)C3=O)cc2)(C(=O)O)C(=O)O)O[C@@H](n2cnc3c(N)nc(Cl)nc32)[C@@H]1O [Example 152, 2-(((2R,3S,4R,5R)-5-(6-amino-2-chloro-9H-purin-9-yl)-3-ethynyl-3,4-dihydroxytetrahydrofuran-2-yl)methoxy)-2-(4-(2-oxo-3-propyltetrahydropyrimidin-1 (2H)-yl)benzyl)malonic acid] |
| 0.48 nM | C#C[C@@]1(O)[C@@H](COC(Cc2ccc(-c3cccn(CCO)c3=O)cc2)(C(=O)O)C(=O)O)O[C@@H](n2cnc3c(NC(C)C)nc(Cl)nc32)[C@@H]1O [Example 153, 2-(((2R,3S,4R,5R)-5-(2-chloro-6-(isopropylamino)-9H-purin-9-yl)-3-ethynyl-3,4-dihydroxytetrahydrofuran-2-yl)methoxy)-2-(4-(1-(2-hydroxyethyl)-2-oxo-1,2-dihydropyridin-3-yl)benzyl)malonic acid] |
| 2 nM | C#C[C@@]1(O)[C@@H](COC(Cc2ccc(N3CCN(C)CC3=O)cc2)(C(=O)O)C(=O)O)O[C@@H](n2cnc3c(N)nc(Cl)nc32)[C@@H]1O [Example 154, 2-(((2R,3S,4R,5R)-5-(6-amino-2-chloro-9H-purin-9-yl)-3-ethynyl-3,4-dihydroxytetrahydrofuran-2-yl)methoxy)-2-(4-(4-methyl-2-oxopiperazin-1-yl)benzyl)malonic acid] |
| 2 nM | C#C[C@@]1(O)[C@@H](COC(Cc2ccc(NCCN(C)CC(=O)O)cc2)(C(=O)O)C(=O)O)O[C@@H](n2cnc3c(N)nc(Cl)nc32)[C@@H]1O [Example 155, 2-(((2R,3S,4R,5R)-5-(6-amino-2-chloro-9H-purin-9-yl)-3-ethynyl-3,4-dihydroxytetrahydrofuran-2-yl)methoxy)-2-(4-((2-((carboxymethyl)(methyl)amino)ethyl)amino)benzyl)malonic acid] |
| 0.14 nM | C#C[C@@]1(O)[C@@H](COC(Cc2ccc(N3CCCNC3=O)cc2)(C(=O)O)C(=O)O)O[C@@H](n2cnc3c(NCc4ccc(OC)cc4OC)cc(Cl)nc32)[C@@H]1O [Example 156, 2-(((2R,3S,4R,5R)-5-(5-chloro-7-((2,4-dimethoxybenzyl)amino)-3H-imidazo[4,5-b]pyridin-3-yl)-3-ethynyl-3,4-dihydroxytetrahydrofuran-2-yl)methoxy)-2-(4-(2-oxotetrahydropyrimidin-1 (2H)-yl)benzyl)malonic acid] |
| 0.37 nM | C#C[C@@]1(O)[C@@H](COC(Cc2ccc(N3CCCNC3=O)cc2)(C(=O)O)C(=O)O)O[C@@H](n2cnc3c(N)cc(Cl)nc32)[C@@H]1O [Example 157, 2-(((2R,3S,4R,5R)-5-(7-amino-5-chloro-3H-imidazo[4,5-b]pyridin-3-yl)-3-ethynyl-3,4-dihydroxytetrahydrofuran-2-yl)methoxy)-2-(4-(2-oxotetrahydropyrimidin-1(2H)-yl)benzyl)malonic acid] |
| 8 nM | C#C[C@@]1(O)[C@@H](COC(Cc2ccn[nH]2)(C(=O)O)C(=O)O)O[C@@H](n2cnc3c(N)nc(Cl)nc32)[C@@H]1O [Example 158, 2-((1H-pyrazol-5-yl)methyl)-2-(((2R,3S,4R,5R)-5-(6-amino-2-chloro-9H-purin-9-yl)-3-ethynyl-3,4-dihydroxytetrahydrofuran-2-yl)methoxy)malonic acid] |
| 476 nM | C#C[C@@]1(O)[C@@H](COC(Cc2ccccc2)(C(=O)O)C(=O)O)O[C@@H](n2cnc3c(-c4cnn(S(=O)(=O)c5ccc(C)cc5)c4)nc(Cl)nc32)[C@@H]1O [Example 159, 2-benzyl-2-(((2R,3S,4R,5R)-5-(2-chloro-6-(1-tosyl-1H-pyrazol-4-yl)-9H-purin-9-yl)-3-ethynyl-3,4-dihydroxytetrahydrofuran-2-yl)methoxy)malonic acid] |
| 0.31 nM | C#C[C@@]1(O)[C@@H](COC(Cc2ccc(-c3cccn(CCC)c3=O)cc2)(C(=O)O)C(=O)O)O[C@@H](n2cnc3c(NC)nc(Cl)nc32)[C@@H]1O [Example 160, 2-(((2R,3S,4R,5R)-5-(2-chloro-6-(methylamino)-9H-purin-9-yl)-3-ethynyl-3,4-dihydroxytetrahydrofuran-2-yl)methoxy)-2-(4-(2-oxo-1-propy-1,2-dihydropyridin-3-yl)benzyl)malonic acid] |
| 561 nM | C#C[C@@]1(O)[C@@H](COC(Cc2ccccc2)(C(=O)O)C(=O)O)O[C@@H](n2cnc3c(N)nc(C(C)O)nc32)[C@@H]1O (stereo partly drawn) [Example 161, 2-(((2R,3S,4R,5R)-5-(6-amino-2-(1-hydroxyethyl)-9H-purin-9-yl)-3-ethynyl-3,4-dihydroxytetrahydrofuran-2-yl)methoxy)-2-benzylmalonic acid] |
